Reference: patent publication US20100255020A1, “METHOD FOR INDUCING CYTOTOXIC T-CELLS, CYTOTOXIC T-CELL INDUCERS, AND PHARMACEUTICAL COMPOSITIONS AND VACCINES EMPLOYING THEM” (NEC CORPORATION, priority 2007, published 2010)
Where no end group is shown, it is not given here.

Tests used:
[1] = test system: HLA-A*2402 positive cell lines that express WT1 naturally (KAZZ, KCL22, KH88, MEG01); test: Reactivity of WT1 peptide-specific cell lines toward tumor cells (IFN-γ ELISPOT); format: cell-based, human; conditions: cell lines established from HLA-A*2402 positive patients, FIG. 5
Description: Reactions of cell lines established from different patients are arranged in a bar graph.

[2] = test system: peptide-loaded target cells (C1R-A24, RA24, T2); test: 51Cr release assay of PBMC killing activity against peptide-loaded target cells; format: cell-based, human
Procedure: Target cells were labeled with ^51Cr and loaded with HLA-binding peptide of interest. 5,000 or 10,000 cells/well of target cells were placed in 96-well U-bottom plate, and then, PBMCs having been stimulated twice in vitro were added thereto as a responder. Cells were incubated at 37° C. for 5 hours and ^51Cr released from the damaged cells during the incubation was measured, and % specific lysis was calculated. As target cells C1R-A24 or RA24 cells were used as a target when reactivity to HLA-A*2402 binding peptides were examined, and T2 cells were used as a target and incubation was carried out for 2 hours after addition of responder cells. Percent specific lysis was calculated as follows. % specific lysis=(test release-spontaneous release)/(total release-spontaneous release)×100.

[3] = test system: malignant tumors; test: Peptide immunotherapy of patients, tumor response by RECIST criteria (CT/MRI); format: in vivo, human; design: key to RECIST, single lung metastasis / RECIST, total sum of longest diameters of 10 metastatic target lesions / RECIST, pubic bone metastatic tumor / RECIST determination 3 months after starting W10 peptide therapy: CR: all target lesions have disappeared; PR: the sum of the longest diameters of the target lesions decreases by at least 30%; PD: the sum of the longest diameters of the target lesions increases by at least 20%; SD: the change of tumr size is between PR or PD
Procedure: Among 18 patients, 3 people are illustrated in the style of case reports. […] The mixture was prepared immediately prior to administration. When W10 peptide was administered without petussis vaccine in the safety test, W10 peptide solution was divided into 4 equal portions and injected intradermally at 4 locations in the same manner. A method to measure the diameter of a tumor and a method to analyze peptide-specific T-cells using an HLA-A24 tetramer by flow cytometry are described below.
The international RECIST criteria referred to here is an evaluation standard described in Theresse, P. et al., J Natl Cancer Inst. 2000, 92, 205-216. When there is confirmation by helical CT or MRI that all target lesions have disappeared this is defined as CR (complete response), when the sum of the longest diameters of the target lesions decreases by at least 30% this is defined as PR (partial response), when the sum of the longest diameters of the target lesions increases by at least 20% this is defined as PD (progressive disease), and when the change of tumr size is between PR or PD this is defined as SD (stable disease). However, regardless of the presence or absence of a change in the target lesions, when even one new lesion appears this is defined as PD.
Based on the above-mentioned international RECIST criteria, which is used for evaluation of anticancer drugs, all measurable tumors were selected as target tumors, and change in the SLD of the tumors over the course of the therapy was monitored. In addition, number of all the tumors was counted, regardless of the size of a tumor, every time diagnostic imaging was carried out in order to lookout for new lesions. Diagnostic imaging was carried out in principle once a month by helical CT or MRI. If even one new metastasis appeared, regardless of the change in the primary lesion, it was judged as PD.
Clinical responses were evaluated according to the aforementioned international RECIST criteria for 18 patients who had been treated by immunotherapy using W10+Wc for at least 3 months and one week. Eight cased out of 18 patients were judged as SD, 10 cased were PD. […] In reports on peptide immunotherapy so far, the tumor control rate was limited to a few % up to ten or so % worldwide (Reference Documents 1 to 4). Compared with these already reported cases, this is a good reaction.

[4] = biological target: T1, HLA-A*0206 molecule (Homo sapiens, UniProt P04439, D140Y/D185E/D98H/E176V/E277Q/F33Y/G131W/G231S/I119V/I121R/I166T/I218V/L300P/L318F/N151K/N90K/P208A/P217A/Q86G/Q94H/R138H/R169H/T345S); test: Peptide binding to HLA-A*0206 molecule on RA2.6 cells (flow cytometry, Kd); conditions: HLA-A*0206, RA2.6 cells; read-out: Binding assay data (−log Kd) (converted)
T1 construct: expressed in transfected cells; host or cells: RA2.6 (mouse TAP-deficient RMAS cells transfected with pMKITneo bearing HLA-A*0206 cDNA)
Procedure: The ability of a peptide to bind to an HLA-A*0206 molecule, which is a product of the HLA-A*0206 gene, was measured using RA2.6 cells (cell line newly generated in Kochi University), wherein cDNA of the HLA-A*0206 gene is introduced into RMAS, which is a mouse TAP (transporter associated with antigen processing)-deficient cell line.
RA2.6 cells were first cultured overnight at 26° C., during this incubation HLA-A*0206 molecules devoid of bound peptide accumulated. Serial dilutions of peptide were added to these cells and peptide binding was carried out at room temperature for 30 minutes.
Subsequently, culture was carried out at 37° C. for 3.5 hours, during this incubation empty HLA-A*0206 molecules to which no peptide was bound were denatured, and the tertiary structure was lost.
The cells were stained by adding thereto fluorescently-labeled monoclonal antibody BB7.2, which specifically recognizes the peptide-bound HLA-A*0206 molecule, and incubating on ice for 20 minutes.
Subsequently, the amount of fluorescence per cell was measured using a flow cytometer, and a dissociation constant Kd value was calculated by a method published in the literature (Udaka et al., Immunogenetics, 51, 816-828, 2000).

[5] = biological target: HLA-A*0201 molecule (Homo sapiens, UniProt P04439, D140Y/D185E/D98H/E176V/E277Q/G131W/G231S/I119V/I121R/I166T/I218V/L300P/L318F/N151K/N90K/P208A/P217A/Q86G/Q94H/R138H/R169H/T345S); test: Peptide binding to HLA-A*0201 molecule on JY cells (flow cytometry, Kd); conditions: HLA-A*0201, JY cells; read-out: Binding assay data (−log Kd) (converted)
Procedure: The ability of a peptide to bind to an HLA-A*0201 molecule, which is a product of the HLA-A*0201 gene, was measured using strain JY cells expressing the HLA-A*0201 molecule.
JY cells were first exposed to acidic conditions at a pH of 3.8 for 30 seconds, thus dissociating and removing a β2m light chain and an endogenous peptide, which were noncovalently associated with the HLA-A* 0201 molecule. After neutralization, a reconstitution experiment was carried out.
The above-mentioned JY cells and the purified […] were added to serial dilutions of peptide for which the binding ability needs to be measured, and incubation was carried out on ice for 4 hours. HLA-A*0201 molecules that had reassociated up to this time point were stained using the fluorescently-labeled monoclonal antibody BB7.2, a conformation dependent monoclonal Ab specific for an assembled form of HLA-A*0201 molecule.
Subsequently, the amount of fluorescence per cell was measured using a flow cytometer and a dissociation constant Kd value was calculated by a method published in the literature (Udaka et al., Immunogenetics, 51, 816-828, 2000).

[6] = biological target: HLA-A*2402 molecule (Homo sapiens, UniProt P04439, D101N/D140Y/D185E/E176V/E190D/F33S/G103R/G107R/I119L/I121M/I306V/K335N/L105A/L180Q/L300P/N151K/N90K/Q86E/Q94H/R106L/R138H/R89G/T104I/T345S/V100E/W191G/Y123F); test: Peptide binding to HLA-A*2402 molecule on C1R-A24 cells (flow cytometry, Kd); conditions: HLA-A*2402, C1R-A24 cells; read-out: Binding assay data (−log Kd) (converted)
Procedure: The ability of a peptide to bind to an HLA-A*2402 molecule, which is a product of the HLA-A*2402 gene, was measured using C1R-A24 cells expressing the HLA-A*2402 molecule (cells generated by Professor Masafumi Takiguchi, Kumamoto University being supplied with permission by Associate Professor Masaki Yasukawa, Ehime University).
C1R-A24 cells were first exposed to acidic conditions at a pH of 3.3 for 30 seconds, thus dissociating and removing a β2m light chain, which is associated with HLA class I molecules in common, and an endogenous peptide originally bound to the HLA-A*2402 molecule. After neutralization, purified β2m was added to C1R-A24 cells, the obtained product was added to serial dilutions of a peptide, and incubated on ice for 4 hours. […]
Subsequently, the number of MHC-pep complexes per C1R-A24 cell (proportional to the intensity of fluorescence of the above-mentioned fluorescent antibody) was quantitatively measured using a FACScan fluorescence-activated flow cytometer (Becton Dickinson Biosciences). A dissociation constant Kd value between the HLA-A*2402 molecule and the peptide was calculated from the average intensity of fluorescence per cell by a method published in the literature (Udaka et al., Immunogenetics, 51, 816-828, 2000).

[7] = HLA-A*2402 binding peptides, FIG. 9a and b

Row | Sequence | Reactivity of peptide-dependent cell line toward WT1-expressing cell lines compared with C1R-A24 [1] | Peptide-reactive cytolytic cells in PBMCs of patients [2, 7] | Effect of immunotherapy on tumor ([3]; patient KB07-005, prostate cancer, 235Y from December 2006) | Primary tumor by MRI ([3]; patient KB07-006, 3 mg 235Y emulsified with Montanide, weekly intradermal, 4th week) | RECIST, single lung metastasis ([3]; patient KB07-006, 235Y immunization for 10 months) | Primary tumor on continued immunization ([3]; patient KB07-006, 235Y weekly, no recurrence at three and a half years) | Kd [4] [nM] | Kd [5] [nM] | Kd [6] [nM] | Peptide-reactive cytolytic cells in PBMCs of patients ([2]; HLA-A*0201 binding peptides, T2 targets)
1 | CYTWNQMNL (listed as Homo sapiens) [235Y, reference compound] | tends to be higher although differences are small | cytolytic cells include those reactive | no effect | apparent reduction of the primary tumor | SD | disappeared |  |  |  | 
2 | GVFRGIQDV [W292] |  |  |  |  |  |  | 331 |  |  | 
3 | RVPGVAPTL [W302] | tends to be higher although differences are small | cytolytic cells include those reactive |  |  |  |  | 245 | 389 | 21.4 | contain cytolytic cells that recognize
